From US20060167056A1, “Polymorphs of {5-[3-(4,6-Difluoro-1H-benzoimidazol-2-yl)-1H-indazol-5-yl)-4-methyl-pyridin-3-ylmethyl}-ethyl-amine” (AGOURON PHARMACEUTICALS, INC., priority 2004, published 2006)
“Also recorded” adds a separate entry of the source.

Legend:
Type in all cases: physicochemical
[1] = Stability study at 40° C. at 75% relative humidity (X-ray powder diffraction and DSC, initial vs 6 weeks)
Description: (§1) The present invention provides several polymorphic crystalline forms of Compound 1. Each crystalline form of the compound can be characterized by one or more of the following: X-ray powder diffraction pattern (i.e., X-ray diffraction peaks at various diffraction angles (2θ)), melting point onset (and onset of dehydration for hydrated forms) as illustrated by endotherms of a differential scanning calorimetry (DSC) thermogram, Raman spectra, thermal gravimetric analysis (TGA), solid state ^13C and ^19F nuclear magnetic resonance (SSNMR) spectrum, aqueous solubility, light stability under International Conference on Harmonization (ICH) high intensity light conditions, and physical and chemical storage stability.
(§2) Polymorph Form A is a meta-stable solvate form of Compound 1. Form A is chemically stable at 40° C. at 75% relative humidty for at least 6 weeks. […] The 6 week DSC thermogram, FIG. 2G, indicates an endotherm onset at 257° C. at a scan rate of 10° C./min.
(§3) Polymorph Form B is physically and chemically stable at 40° C. at 75% relative humidity for at least six weeks.
FIG. 2A is an X-ray powder diffractogram of polymorph Form B of Compound 1. Form B was further characterized by Raman spectra, ^13C solid state NMR, ^19F solid state NMR, DSC profiling and TGA analysis.

[2] = DSC profiling, meta-stability of the polymorphic form; conditions: DSC thermogram
Description: Different polymorphic forms of Compound 1 were also distinguished using differential scanning calorimetry (DSC). DSC measures the difference in heat energy between a solid sample and an appropriate reference with an increase in temperature. DSC thermograms are characterized by endotherms (indicating energy uptake) and also by exotherms (indicating energy release), typically as the sample is heated. The DSC thermographs were obtained using a TA Instrument DSC Q-1000 instrument at a scan rate of 10° C./min over a temperature range of 25-300° C. Samples were weighed into aluminum crucibles that were sealed and punctured with a single hole. The extrapolated onset of melting temperature and, where applicable, the onset of dehydration/desolvation temperature, were also calculated. […] For any given example, the observed endotherms may also differ from instrument to instrument; however, it will generally be within the ranges defined herein provided the instruments are calibrated similarly.
as §2
FIG. 3A is an X-ray powder diffractogram of polymorph Form C of Compound 1. […]

[3] = Aqueous solubility
Description: as §1, §3

SMILES | chemically stable, duration [1] | polymorph conversion, initial DSC thermogram vs 6 week DSC thermogram ([1]; 6 weeks, DSC scan rate 10° C./min) | physical stability, initial X-Ray powder diffraction data vs 6 week stability X-ray data ([1]; 6 weeks, XRPD) | stability class of the polymorphic form [2] | solubility ([3]; aqueous, aqueous buffer, pH=4, read-out: initial aqueous solubility) | behaviour of the aqueous solution after time ([3]; pH=4, after time)
CCNCc1cncc(-c2ccc3[nH]nc(-c4nc5c(F)cc(F)cc5[nH]4)c3c2)c1C [Form A, {5-[3-(4,6-Difluoro-1H-benzoimidazol-2-yl)-1H-indazol-5-yl]-4-methyl-pyridin-3-ylmethyl}-ethyl-amine] | at least 6 weeks | small conversion of Form A to Form B; also recorded: a small amount of Form A had been converted to Form B | appears to be physically stable | meta-stable | – | –
CCNCc1cncc(-c2ccc3[nH]nc(-c4nc5c(F)cc(F)cc5[nH]4)c3c2)c1C [Form B, {5-[3-(4,6-Difluoro-1H-benzoimidazol-2-yl)-1H-indazol-5-yl]-4-methyl-pyridin-3-ylmethyl}-ethyl-amine] | at least six | – | – | – | > 20 mg/mL | the solution has been seen to gel
CCNCc1cncc(-c2ccc3[nH]nc(-c4nc5c(F)cc(F)cc5[nH]4)c3c2)c1C [Form C, {5-[3-(4,6-Difluoro-1H-benzoimidazol-2-yl)-1H-indazol-5-yl]-4-methyl-pyridin-3-ylmethyl}-ethyl-amine] | – | – | – | meta-stable | – | –
